These results are taken from patent publication EP0429333B1, “Process for producing oxazopyrroloquinolines, novel oxazopyrroloquinolines, and use of oxazopyrroloquinolines” (priority 1989, dated 1991).

A short description of series [1]: Solubility of the isolated compound, described in words. Type of series: physicochemical. The note with it: for solubility in water / solubility under neutral and alkaline conditions: water.
Series [2] deals with aldose reductase of kidney (Canis lupus familiaris, UniProt A0A8I3P2L6). As to the kind of experiment: Inhibitory effect on aldose reductase of kidney. It is filed as biochemical, dog. Conditions: read-out: Degree of inhibition for aldose reductase (%); for inhibition at 1 µM: concentration 1x10^-6 M; for inhibition at 2 µM: concentration 2x10^-6 M; for inhibition at 0.5 µM: concentration 5x10^-7 M. On the procedure:
Medulla of kidney of dog was homogenized with 10mM phosphoric acid buffer (pH 7.0) containing 2mM dithiothreitol in an amount of four times the volume of kidney medulla and subjected to centrifugation. The supernatant liquid was purified by affinity chromatography, gel filtration and chromatofocusing to obtain electrophoretically homogeneous aldose reductase. 0.05 ml of 3mM NADPH, 0.1 ml of DL-glyceraldehyde and 0.04 ml of distilled water were added to 0.8 ml of 0.1M phosphoric acid buffer (pH 6.2) and left to stand at 25°C for 3 minutes. Then, 0.01 ml of the aldose reductase solution was added thereto to start reaction and decreasing of absorbance of 340 nm was measured at 25°C with time. Amount of enzyme which consumes 1 µmole of NADPH for 1 minute was taken as 1 unit.

In series [3] the test system is peritoneal macrophage. As to the kind of experiment: Test on macrophage-chemotaxis after intraperitoneal administration. It is filed as in vivo, C3H/He mice. Conditions: for (2) Chemotaxis factor was present: 50 % zymosan treated serum, no administration 40; for (2) - (1) Chemotaxied macrophage: no administration 29; for Relative activity of group (%): no administration = 100; for (1) Chemotaxis factor was not present: total number of chemotaxied macrophages at 3 points, no administration 11. On the procedure: Thirtytwo C3H/He mice (male, 7 weeks old, average body weight 20 g, supplied by Japan Charles River Co.) were divided into 4 groups (A - D) of 8 mice each.
A solution of OPQ in physiological saline of pH 7.0 was intraperitoneally administered to each mouse 7 times, namely, on the 1st day, 2nd day, 3rd day, 4th day, 5th day, 6th day and 7th day. Dosage for one administration per one mouse was as follows: That is, 0.2 ml of the solution containing 0.2 mg/ml of OPQ for group B, 0.2 ml of the solution containing 0.5 mg/ml of OPQ for group C, 0.2 ml of the solution containing 1.0 mg/ml of OPQ for group D and 0.2 ml of physiological saline for group A.
On the 8th day from starting of the experiment, the mice were anesthetized with ether and blood was drawn from carotid artery and 5 ml of cold Hanks solution was intraperitoneally injected and exudate cells for the abdominal cavity were collected. Exudate cells for the abdominal cavity of respective groups were gathered, washed three times with cold Hanks solution and suspended in RPMI medium at 5 x 10^5 cells/ml and macrophage-chemotaxis was measured. 50 % zymosan treated serum was used as chemotaxis factor and examination was conducted at three points for each sample. Number of chemotaxied macrophage was measured on microscope and 13 visual fields was examined for one point and the results are shown in Table 2. The value in the table is a total number of chemotaxied macrophages at 3 points for each sample. Preparation of Hanks solution and RPMI medium will be explained below.
Test on macrophage-chemotaxis was conducted in the same manner as in Example 36 except that hydroxymethyl OPQ was intraperitoneally administered to each mouce 3 times of the 1st day, the 2nd day and the 3rd day in the following dosage for one administration per one mouse: 0.2 ml of hydroxymethyl OPQ solution containing 0.5 mg/ml of hydroxymethyl OPQ for group B, 0.2 ml of the solution containing 1.0 mg/ml of hydroxymethyl OPQ for group C, and 0.2 ml of the solution containing 1.5 mg/ml of hydroxymethyl OPQ for group D and exudate cells for the abdominal cavity were collected on the 4th day from starting of experiment.
In Examples 36 - 40, macrophage activity was examined according to chemotaxis of peritoneal macrophage (literature 1) and activity of T cell and that of B cell were examined according to blast transformation reaction using concanavalin A and lipopolysaccharide, (LPS) as mitogen (literature 2). Literature 1: "Function of Macrophage and Method of Measurement of Function", pages 61-65 1985), edited by Educational Committee of Japan Bacteriological Society and published from Saikon Shuppan Co.) Literature 2: "New Method of Searching of Function of Lymphocytes", pages 350-355 (1987) edited by Junichi Yada and Michio Fujiwara and published from Chugai Igaku Co.

For series [4], the target named is T1, aldose reductase of rabbit lens (Oryctolagus cuniculus, UniProt P15122).
T1 construct: to obtain electrophoretically homogeneous aldose reductase; from tissue; host or cells: rabbit lens
In words: Inhibitory effect on aldose reductase of lens. Type of series: biochemical. Conditions: read-out: Degree of inhibition for aldose reductase (%). On the procedure: 0.05 ml of 3mM NADPH, 0.1 ml of DL-glyceraldehyde and 0.04 ml of distilled water were added to 0.8 ml of 0.1M phosphoric acid buffer (pH 6.2) and left to stand at 25°C for 3 minutes. Then, 0.01 ml of the aldose reductase solution was added thereto to start reaction and decreasing of absorbance of 340 nm was measured at 25°C with time. Amount of enzyme which consumes 1 µmole of NADPH for 1 minute was taken as 1 unit.
Enzyme activity was measured under the same conditions as in the above measurement of aldose reductase activity except that 0.04 ml of aqueous solution of inhibitory substance in various concentrations was added in place of 0.04 ml of distilled water and degree of inhibition was calculated from comparison of the enzyme activity with the enzyme activity obtained in the absence of inhibitor. (1) OPQ, (2) methyl OPQ, (3) 1-methylpropyl OPQ, (4) 2-methylpropyl OPQ, (5) 2-carbamoylethyl OPQ, (6) hydroxymethyl OPQ, (7) 2-methylthioethyl OPQ, (8) 2-carboxyethyl OPQ, (9) 4-hydroxybenzyl OPQ, (10) 1-methylethyl OPQ, and (11) benzyl OPQ were used as inhibition substances and (12) PQQ was used as control.
Lens of rabbit was homogenized with 10mM phosphoric acid buffer (pH 7.0) containing 2mM dithiothreitol in an amount of two times the volume of the lens and subjected to centrifugation. The supernatant liquid was purified by affinity chromatography, gel filtration and chromatofocusing to obtain electrophoretically homogeneous aldose reductase. Using (1) OPQ, (2) 1-methylpropyl OPQ, (3) 2-methylpropyl OPQ, (4) hydroxymethyl OPQ, and (5) 1-methylethyl OPQ as inhibition substances, degree of inhibition of these substances for aldose reductase of rabbit lens was examined in the same manner in Example 32.

The subject of series [5] is male SPF-ICR mice. As to the kind of experiment: in vivo. Conditions: mouse, in vivo. Here is the method: (1) Acute toxicity test: • (i) To male SPF-ICR mice of 5 weeks old (supplied by Charles River Co.) were intraperitoneally administered PQQ·2Na and OPQs in the dosages of 20, 40, 80, 160 and 200 mg/kg body weight of mouse, respectively and they were bred at 25°C for 14 days. OPQ, 1-methylpropyl OPQ, 2-methylthioethyl OPQ, and benzyl OPQ were used as the OPQs. One group consisted of 8 mice. […] One group consisted of 8 mice. […] They were bred at 25°C for 14 days. One group consisted of eight mice. […] (2) Toxicity to kidney (i) Toxicity to kidney determined by urine examination: In the same manner as in the acute toxicity test, PQQ·2Na and OPQs were respectively intraperitoneally administered to mice and these mice were bred. Urine was collected every day and concentration of glucose in urine was obtained using Uristex II (manufactured by Miles·Sankyo Co.). […]

Series [6] deals with kidney. In words: Toxicity to kidney determined by blood examination. The note with it: serum; for Creatinine: Table 2, no administration 0.8; for Urea nitrogen: Table 2, no administration 24; for Glucose: Table 2, no administration 78. It is filed as in vivo, mice. Here is the method:
After one day from administration, the mice were fasted (only water was given) and after lapse of 18 hours, blood was collected and serum was obtained therefrom. Glucose, urea nitrogen and creatinine in the serum were examined using FUJI Dry Chemslide (manufactured by Fuji Photo Film Co., Ltd.). […]
Thereafter, the mice were fasted (with giving only water) and after lapse of 18 hours, blood was collected and serum was obtained therefrom. Contents of glucose, urea nitrogen and creatinine in serum were obtained using FUJI Dry Chemslide. The results were shown by average value for eight mice.

The subject of series [7] is carbon tetrachloride (CCl4)-induced liver diseases. In words: Pharmacological activity on carbon tetrachloride-induced liver diseases. It is filed as in vivo, SD rats. The note with it: 5mg/kg rat twice, CCl4 1 ml/kg rat.
The mark [8] stands for this setting: 5 mg/kg mouse x 3 days intraperitoneally.
Setting [9] is: 10 mg/kg mouse x 3 days intraperitoneally.
Where [10] appears, read: 15 mg/kg mouse x 3 days intraperitoneally.
The mark [11] stands for this setting: 40 mg/kg mouse intraperitoneally.
Setting [12] is: 80 mg/kg mouse intraperitoneally.
[13] abbreviates: 160 mg/kg mouse intraperitoneally.
Where [14] appears, read: 200 mg/kg mouse intraperitoneally.

On to `O=C(O)c1cc(C(=O)O)c2c(n1)c1nc(CO)oc1c1cc(C(=O)O)[nH]c12` [Hydroxymethyl OPQ, 5-Hydroxymethyl-2,8,10-tricarboxy-1H-oxazo[5,4-h]-pyrrolo[2,3-f]-quinoline], for which, in series [1], the “solubility in acetone and diethyl ether” value is “did not dissolve”; the “solubility in lower alcohols” value was “dissolved”; the solubility in water result is “easily soluble”; the “solubility under neutral and alkaline conditions” value is “very easily soluble”. Besides, in series [2], the inhibition (in general, the relative decrease from the control value, in per cent) at 1 µM worked out at 57.9%; the inhibition at 2 µM was found to be 68.2%; the inhibition at 0.5 µM was 41.1%. Moreover, the inhibition at 0.2 µM in series [2] (concentration 2x10^-7 M) was determined as 26.7%. Further, in series [3] (setting [8]), the “(2) Chemotaxis factor was present” value is 61, the “(2) - (1) Chemotaxied macrophage” value was found to be 44, the “Relative activity of group (%)” value was determined as 152% and the “(1) Chemotaxis factor was not present” value came out at 17. In series [3] (setting [9]), the “(2) Chemotaxis factor was present” value was 66, the “(2) - (1) Chemotaxied macrophage” value is 56, the “Relative activity of group (%)” value is given as 193% and the “(1) Chemotaxis factor was not present” value was determined as 10. For the same compound, in series [3] (setting [10]), the “(2) Chemotaxis factor was present” value is reported as 48, the “(2) - (1) Chemotaxied macrophage” value worked out at 39, the “Relative activity of group (%)” value amounted to 134% and the “(1) Chemotaxis factor was not present” value amounted to 9. In addition, in series [4] (concentration 1x10^-6 M), the inhibition at 1 µM was determined as 50.1%. In addition, in series [4] (concentration 2x10^-6 M), the inhibition at 2 µM was found to be 60.4%. For the same compound, the inhibition at 0.5 µM in series [4] (concentration 5x10^-7 M) was 31.9%.

On to `CSCCc1nc2c3nc(C(=O)O)cc(C(=O)O)c3c3[nH]c(C(=O)O)cc3c2o1` [2-Methylthioethyl OPQ, 5-(2-Methylthioethyl)-2,8,10-tricarboxy-1H-oxazo-[5,4-h]-pyrrolo[2,3-f]quinoline], for which the death of mice entry in series [5] is “no mice died”. Also, in series [1], the “solubility in acetone and diethyl ether” value is “did not dissolve”; the “solubility in lower alcohols” value is recorded as “dissolved”; the solubility in water result is listed as “easily soluble”; the “solubility under neutral and alkaline conditions” value is on record as “especially soluble”. Besides, the inhibition at 10 µM in series [2] (concentration 1x10^-5 M) was 83%. Further, in series [2], the inhibition at 1 µM was found to be 42%, the inhibition at 2 µM is 54.9% and the inhibition at 0.5 µM came out at 24.3%. Moreover, in series [2] (concentration 5x10^-6 M), the inhibition at 5 µM is 81.8%. In series [6] (setting [11]), this compound gave a Creatinine of 0.8 mg/dL, a Urea nitrogen of 26 mg/dL and a Glucose of 96 mg/dL. Also, in series [6] (setting [12]), the Creatinine worked out at 0.7 mg/dL, the Urea nitrogen was 26 mg/dL and the Glucose came out at 88 mg/dL. In series [6] (setting [13]), this compound gave a Creatinine of 0.6 mg/dL, a Urea nitrogen of 26 mg/dL and a Glucose of 97 mg/dL. In series [6] (setting [14]), this compound had a Creatinine of 0.7 mg/dL, a Urea nitrogen of 26 mg/dL and a Glucose of 72 mg/dL. In addition, in series [7] (Table 27: CCl4 only 1.2, no administration 0.5), the Total bilirubin was found to be 0.7 mg/dL. Besides, in series [7] (Table 27: CCl4 only 818, no administration 16), the GPT was found to be 157 U/l. This compound registered a GOT in series [7] (Table 27: CCl4 only 3308, no administration 144) of 693 U/l.
